According to patent publication US8323971B2, “Differentiation of pluripotent cells into primary germ layer progenitors” (Cambridge Enterprise Limited, priority 2006, dated 2012):

Tested on: H9 hESCs
Assay: Screening of culture conditions by immunostaining for Oct4, Sox2, Brachyury, Sox17
Format: cell-based, human
Set-up: key to Pluripotency Oct4, fraction of expressing cells / Neuro Sox2, fraction of expressing cells / Meso Brachyury, fraction of expressing cells / Endo Sox17, fraction of expressing cells: 0 for absence of expression; VL for expressing cells <1%; L for expressing cells <5%; H for expressing cells >10%; VH for expressing cells >50%
Details: Conditions CDM (CDM-BSA), 7 days or more
Protocol: Table 2 and Table 3 show the screening of culture conditions for inducing mesoendoderm differentiation into CDM. H9 hESCs were grown for 7 days or more in CDM-BSA or CDM-PVA supplemented with different growth factors (Activin, BMP4, FGF2) or inhibitors (SU5402 for FGF, SB431542 for Activin/Nodal/TGFβ, BIO for βCatenin). Then, immunostaining analysis were used to determine the fractions of cells expressing the pluripotent marker Oct-4, neuroectoderm marker Sox2, the mesoderm marker Brachyury, and the endoderm marker Sox17. The quantities of expressing cells were divided into five arbitrary categories. 0 for absence of expression, VL for expressing cells <1%, L for expressing cells <5%, H for expressing cells >10%, VH for expressing cells >50%. IN red are indicated the conditions allowing the generation of mesendoderm cells expressing Brachyury or Sox17.
HESCs or differentiated progenitors were fixed for 20 minutes at 4° C. in 4% paraformaldehyde (PFA) and then washed three times in PBS. Cells were incubated for 20 minutes at room temperature in PBS containing 10% goat serum (Serotec) and subsequently incubated over night at 4° C. with primary antibody diluted in 1% goat serum in PBS as follows: SSEA-3 (1:100, Santa Cruz), SSAE-1 (1:25), Tra-1-60 (1:100, Santa CruZ), Oct-4 (1:100, Abcam ab18976 or SantaCruz), Sox2 (1:100, Abcam ab15830), Alkaline Phophatase (1:50, Abcam ab17989), Brachyury (1:100, Abcam ab20680 or RandD systems), Sox17 (RandD systems), FoxA2 (1:50, Abcam ab5074), GATA4 (1:250, Santa CruZ), GATA6 (1:200, Abcam ab22600 or Santa Cruz), Vent-2 (1:100, Abcam ab20913), Goosecoid (1:25, Abcam ab21059), Wnt3A (1:100, Abcam ab19925), CXCR4 (1:100, RanD Systems or Pharmingen). Nestin (1:200, Abcam ab5968), NCAM (1:100, Abcam ab8077), GFAP (ZZ), Neurofilament (ZZ), βIII Tubulin (ZZ), Glutamate (ZZ), N-Cadherin (1:100, Abcam ab18203 or ZZ). Cells were then washed three times in PBS and incubated with fluorescein-Isothiocyanate-conjugated anti-mouse IgG or IgM (Sigma 1:200 in 1% goat serum in PBS) or rat IgM (Jackson laboratory 1:300 in goat serum in PBS) or rabbit IgG (Jackson laboratory 1:200 in donkey serum in PBS) for two hours at room temperature. Unbound secondary antibody was removed by 3 washes in PBS. Hoechst 33258 was added to the first wash (Sigma 1:10000).
We then developed a method for inducing differentiation of hESCs into the three primary germ layers. Culture conditions inductive for mesoderm, endoderm and neuroectoderm were screened using an approach based on immunostaining analyses for the expression of proteins specifically expressed by pluripotent cells (Oct-4), neuroectoderm progenitors (Sox2 in absence of Oct4), endoderm progenitors (Sox17) and mesoderm progenitors (Brachyury). In summary, hESCs grown in CDM (CDM-BSA or hu-CDM) were plated on fibronectin in CDM-BSA/AF or CDM-PVA/AF. Then cocktails of growth factors (BMP4, FGF2, Activin) or chemical inhibitors (SU5402, SB431542) were added at different times and for different periods. After 7 to 10 days treatment, cells were fixed and then the expression of Oct-4/Sox2, Sox17 and Brachyury was analysed using immunostaining. The effect of three growth factors on the differentiation of hESCs into the primary germ layers was systematically analysed in our screen. We also studied the function of FGF and Activin signalling pathways in the maintenance of the pluripotent state by analysing the effect of the SU5402, a chemical inhibitor of FGF receptors, and the SB431542, a chemical inhibitor of Activin/TGFβ receptors.

BMP4: Bone Morphogenetic Protein 4 growth factor
0: Endo Sox17, fraction of expressing cells | Meso Brachyury, fraction of expressing cells | Neuro Sox2, fraction of expressing cells | Pluripotency Oct4, fraction of expressing cells
